Where two headings read alike, the source gives them in different places. Square brackets hold non-standard residues; d marks the D form. Side chains are listed from the residue outwards. Peptide text beside a SMILES is read from it. * marks the point of attachment. X12 = CCOc1ccc(C[C@@H](NC(=O)[C@H](N)Cc2ccccc2)C(=O)*)cc1; X5 = NCCCC[C@@H](NC(=O)CNC(=O)C1(N)CCN(*)CC1)C(N)=O; Piperidin1yl(4-NH2,4-COOH) = NC1(C(=O)O)CCN(*)CC1; Piperidinyl(4-NH2,4-CONH2) = NC(=O)C1(N)CCN(*)CC1; X10 = NCCCC[C@@H](NC(=O)C1(N)CCN(*)CC1)C(=O)O; X1 = NCCCC[C@@H](NC(=O)C1(N)CCN(*)CC1)C(N)=O; dAla(cPr) = N[C@H](CC1CC1)C(=O)O; Trifluoroethyl = FC(F)(F)C*; Api = NC1(C(=O)O)CCNCC1; iPr = CC(C)*
Molecular target: T1, human κ opioid receptor (OPRK1) (Homo sapiens, UniProt P41145)
T1 construct: expressed in transfected cells; host or cells: CHO-K1
Experiment: Determination of activities of κ receptor agonists: inhibition of forskolin-stimulated cAMP release (HTRF) in stably transfected CHO-K1 cells
Format: cell-based
Conditions: for Relative Activity %: relative to Difelikefalin = 100.0
Description: Gi-coupled human κ opioid receptor (OPRK1), upon stimulation with its specific opioid receptor agonists, can inhibit the intracellular adenylate cyclase pathway, and decrease cAMP levels. Forskolin can stimulate cAMP release in cell lines highly expressing opioid receptors. By stimulating cell lines stably transfected with opioid receptors, the inhibitory effect of a test compound on forskolin-stimulated cAMP release can be measured to determine the activity of the compound. The relative light units (RLU) from the cells after stimulation with different doses were measured via the homogeneous time-resolved fluorescence technique (HTRF), and the EC50 value of the agonist was subsequently calculated. This activity determination method is a currently commonly used method for determining the activities of opioid receptor agonists at home and abroad.
A CHO-K1 cell line stably expressing opioid receptors was used. Stably transfected cells were stimulated with various concentrations of agonists (under the stimulation of a certain concentration of forskolin). The relative light units from the cells after stimulation with different doses were measured, from which the EC50 value of the agonist was subsequently obtained by calculation.

T1 sequence (P41145 whole entry): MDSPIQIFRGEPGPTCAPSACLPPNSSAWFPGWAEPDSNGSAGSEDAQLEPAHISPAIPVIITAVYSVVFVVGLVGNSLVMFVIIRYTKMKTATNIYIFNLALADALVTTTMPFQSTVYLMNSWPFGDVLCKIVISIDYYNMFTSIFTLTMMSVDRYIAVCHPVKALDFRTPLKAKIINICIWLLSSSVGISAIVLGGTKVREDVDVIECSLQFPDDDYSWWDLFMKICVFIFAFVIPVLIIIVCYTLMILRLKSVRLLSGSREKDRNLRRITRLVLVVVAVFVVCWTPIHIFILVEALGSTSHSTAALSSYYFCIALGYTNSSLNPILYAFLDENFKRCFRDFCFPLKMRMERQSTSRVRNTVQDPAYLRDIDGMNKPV

In the case of `CC(C)C[C@@H](NC(=O)[C@@H](Cc1ccc(OCC(F)(F)F)cc1)NC(=O)[C@H](N)Cc1ccccc1)C(=O)N[C@H](CCCCN)C(=O)N1CCC(N)(C(N)=O)CC1` [Compound 91, D-Phe-D-Tyr(CH2CF3)-D-Leu-D-Lys-4-aminopiperidine-4-carboxamide-NH2] (H-[dF][dY](Trifluoroethyl)[dL][dK]-{Piperidinyl(4-NH2,4-CONH2)}; N-terminus assumed), the EC50 is reported as 0.11 nM and the “Relative Activity %” value is reported as 550.0%.
For `CC(C)C[C@@H](NC(=O)[C@@H](Cc1ccccc1)NC(=O)[C@H](N)Cc1ccccc1)C(=O)N[C@H](CCCCN)C(=O)N1CCC(N)(C(=O)O)CC1` [Difelikefalin, D-Phe-D-Phe-D-Leu-D-Lys-4-caminopiperidine-4-arboxylicacid-OH, reference compound], the EC50 (CHO-K1 cell line stably expressing opioid receptors, forskolin-stimulated cAMP, HTRF, read-out: EC50) was 0.607 nM.
For `CCOc1ccc(C[C@@H](NC(=O)[C@H](N)Cc2ccccc2)C(=O)N[C@H](CC(C)C)C(=O)N[C@H](CCCCN)C(=O)N2CCC(N)(C(=O)N[C@H](CCCCN)C(=O)N[C@H](CCCCN)C(=O)N[C@H](CCCCN)C(=O)N[C@H](CCCCN)C(=O)N[C@H](CCCCN)C(N)=O)CC2)cc1` [Compound 23, D-Phe-D-Tyr(Et)-D-Leu-D-Lys-4-aminopiperidine-4-carboxamide-D-Lys-D-Lys-D-Lys-D-Lys -D-Lys-NH2] (H-[Api]([dK-dL-X12])[dK][dK][dK][dK][dK]-NH2; N-terminus assumed), the EC50 was 0.0554 nM and the “Relative Activity %” value was 1096.0%.
With `CC(C)C[C@@H](NC(=O)[C@@H](Cc1ccc(OC(C)C)cc1)NC(=O)[C@H](N)Cc1ccccc1)C(=O)N[C@H](CCCCN)C(=O)N1CCC(N)(C(=O)N[C@H](CCCCN)C(N)=O)CC1` [Compound 101, D-Phe-D-Tyr(Ipr)-D-Leu-D-Lys-4-aminopiperidine-4-carboxamide-D-Lys-NH2] (H-[dF][dY](iPr)[dL][dK]-X1; N-terminus assumed) the EC50 was 0.0728 nM and the “Relative Activity %” value was 834.1%.
In the case of `CCOc1ccc(C[C@@H](NC(=O)[C@H](N)Cc2ccccc2)C(=O)N[C@H](CC(C)C)C(=O)N[C@H](CCCCN)C(=O)N2CCC(N)(C(=O)NCC(=O)NCC(=O)NCC(=O)NCC(=O)NCC(=O)N[C@H](CCCCN)C(=O)O)CC2)cc1` [Compound 66, D-Phe-D-Tyr(Et)-D-Leu-D-Lys-4-aminopiperidine-4-carboxamide-Gly-Gly-Gly-Gly-Gly-D-Lys-OH] (H-[Api]([dK-dL-X12])GGGGG[dK]-OH; N-terminus assumed), the EC50 is reported as 0.0895 nM and the “Relative Activity %” value is reported as 678.4%.
In the case of `CC(C)C[C@@H](NC(=O)[C@@H](Cc1ccc(OCC(F)(F)F)cc1)NC(=O)[C@H](N)Cc1ccccc1)C(=O)N[C@H](CCCCN)C(=O)N1CCC(N)(C(=O)O)CC1` [Compound 92, D-Phe-D-Tyr(CH2CF3)-D-Leu-D-Lys-4-aminopiperidine-4-carboxamide-OH] (H-[dF][dY](Trifluoroethyl)[dL][dK]-{Piperidin1yl(4-NH2,4-COOH)}; N-terminus assumed), the EC50 is reported as 0.109 nM and the “Relative Activity %” value is reported as 558.6%.
`CC(C)C[C@@H](NC(=O)[C@@H](Cc1ccc(I)cc1)NC(=O)[C@H](N)Cc1ccccc1)C(=O)N[C@H](CCCCN)C(=O)N1CCC(N)(C(=O)N[C@@H](CCCCN)C(N)=O)CC1` [Compound 123, D-Phe-D-Phe(4-I)-D-Leu-D-Lys-4-aminopiperidine-4-carboxamide-Lys-NH2] was tested, and the EC50 was 0.0535 nM and the “Relative Activity %” value was 1135.0%.
With `CC(C)C[C@@H](NC(=O)[C@@H](Cc1ccc(OCC(F)(F)F)cc1)NC(=O)[C@H](N)Cc1ccccc1)C(=O)N[C@H](CCCCN)C(=O)N1CCC(N)(C(=O)N[C@H](CCCCN)C(N)=O)CC1` [Compound 95, D-Phe-D-Tyr(CH2CF3)-D-Leu-D-Lys-4-aminopiperidine-4-carboxamide-D-Lys-NH2] (H-[dF][dY](Trifluoroethyl)[dL][dK]-X1; N-terminus assumed) the EC50 was 0.0505 nM and the “Relative Activity %” value was 1202.4%.
In the case of `CC(C)C[C@@H](NC(=O)[C@@H](Cc1ccc(Cl)cc1)NC(=O)[C@H](N)Cc1ccccc1)C(=O)N[C@H](CCCCN)C(=O)N1CCC(N)(C(=O)N[C@H](CCCCN)C(=O)O)CC1` [Compound 114, D-Phe-D-Phe(4-C1)-D-Leu-D-Lys-4-aminopiperidine-4-carboxamide-D-Lys-OH], the EC50 is reported as 0.0515 nM and the “Relative Activity %” value is reported as 1179.0%.
In the case of `COc1ccc(C[C@@H](NC(=O)[C@H](N)Cc2ccccc2)C(=O)N[C@H](CC(C)C)C(=O)N[C@H](CCCCN)C(=O)N2CCC(N)(C(=O)O)CC2)cc1` [Compound 86, D-Phe-D-Tyr(Me)-D-Leu-D-Lys-4-aminopiperidine-4-carboxamide-OH] (H-[dF][dY](Me)[dL][dK]-{Piperidin1yl(4-NH2,4-COOH)}; N-terminus assumed), the EC50 is reported as 0.121 nM and the “Relative Activity %” value is reported as 501.0%.
`CCOc1ccc(C[C@@H](NC(=O)[C@H](N)Cc2ccccc2)C(=O)N[C@H](CC(C)C)C(=O)N[C@H](CCCCN)C(=O)N2CCC(N)(C(=O)N[C@@H](CCCCN)C(=O)N[C@@H](CCCCN)C(=O)N[C@@H](CCCCN)C(=O)N[C@@H](CCCCN)C(=O)N[C@@H](CCCCN)C(=O)N[C@@H](CCCCN)C(=O)O)CC2)cc1` [Compound 14, D-Phe-D-Tyr(Et)-D-Leu-D-Lys-4-aminopiperidine-4-carboxamide-Lys-Lys-Lys-Lys-Lys-Lys-OH] (H-[Api]([dK-dL-X12])KKKKKK-OH; N-terminus assumed) was tested, and the EC50 was 0.0655 nM and the “Relative Activity %” value was 927.0%.
`CCOc1ccc(C[C@@H](NC(=O)[C@H](N)Cc2ccccc2)C(=O)N[C@H](CC2CC2)C(=O)N[C@H](CCCCN)C(=O)N2CCC(N)(C(=O)N[C@H](CCCCN)C(N)=O)CC2)cc1` [Compound 71, D-Phe-D-Tyr(Et)-D-cyclopropylalanine-D-Lys-4-aminopiperidine-4-carboxamide-D-Lys-NH2] (H-[dF][dY](Et)[dAla(cPr)][dK]-X1; N-terminus assumed) was tested, and the EC50 was 0.041 nM and the “Relative Activity %” value was 1481.0%.
For `CCOc1ccc(C[C@@H](NC(=O)[C@H](N)Cc2ccccc2)C(=O)N[C@H](CC(C)C)C(=O)N[C@H](CCCCN)C(=O)N2CCC(N)(C(=O)NCC(=O)N[C@H](CCCCN)C(N)=O)CC2)cc1` [Compound 49, D-Phe-D-Tyr(Et)-D-Leu-D-Lys-4-aminopiperidine-4-carboxamide-Gly-D-Lys-NH2] (H-[dF][dY](Et)[dL][dK]-X5; N-terminus assumed), the EC50 was 0.0445 nM and the “Relative Activity %” value was 1364.5%.
In the case of `CCOc1ccc(C[C@@H](NC(=O)[C@H](N)Cc2ccccc2)C(=O)N[C@H](CC(C)C)C(=O)N[C@H](CCCCN)C(=O)N2CCC(N)(C(=O)NCC(=O)NCC(=O)NCC(=O)N[C@H](CCCCN)C(=O)O)CC2)cc1` [Compound 58, D-Phe-D-Tyr(Et)-D-Leu-D-Lys-4-aminopiperidine-4-carboxamide-Gly-Gly-Gly-D-Lys-OH] (H-[Api]([dK-dL-X12])GGG[dK]-OH; N-terminus assumed), the EC50 is reported as 0.0515 nM and the “Relative Activity %” value is reported as 1179.0%.
For `CC(C)C[C@@H](NC(=O)[C@@H](Cc1ccc(I)cc1)NC(=O)[C@H](N)Cc1ccccc1)C(=O)N[C@H](CCCCN)C(=O)N1CCC(N)(C(N)=O)CC1` [Compound 121, D-Phe-D-Phe(4-I)-D-Leu-D-Lys-4-aminopiperidine-4-carboxamide-NH2], the EC50 was 0.122 nM and the “Relative Activity %” value was 496.1%.
With `CCOc1ccc(C[C@@H](NC(=O)[C@H](N)Cc2ccccc2)C(=O)N[C@H](CC(C)C)C(=O)N[C@H](CCCCN)C(=O)N2CCC(N)(C(=O)N[C@@H](CCCCN)C(=O)N[C@@H](CCCCN)C(=O)N[C@@H](CCCCN)C(=O)N[C@@H](CCCCN)C(=O)N[C@@H](CCCCN)C(N)=O)CC2)cc1` [Compound 11, D-Phe-D-Tyr(Et)-D-Leu-D-Lys-4-aminopiperidine-4-carboxamide-Lys-Lys-Lys-Lys-Lys-NH2] (H-[Api]([dK-dL-X12])KKKKK-NH2; N-terminus assumed) the EC50 was 0.0534 nM and the “Relative Activity %” value was 1137.1%.
With `CC(C)C[C@@H](NC(=O)[C@@H](Cc1ccc(Br)cc1)NC(=O)[C@H](N)Cc1ccccc1)C(=O)N[C@H](CCCCN)C(=O)N1CCC(N)(C(=O)O)CC1` [Compound 116, D-Phe-D-Phe(4-Br)-D-Leu-D-Lys-4-aminopiperidine-4-carboxamide-OH] the EC50 was 0.136 nM and the “Relative Activity %” value was 448.1%.
`CC(C)C[C@@H](NC(=O)[C@@H](Cc1ccc(OCC(F)(F)F)cc1)NC(=O)[C@H](N)Cc1ccccc1)C(=O)N[C@H](CCCCN)C(=O)N1CCC(N)(C(=O)N[C@H](CCCCN)C(=O)O)CC1` [Compound 96, D-Phe-D-Tyr(CH2CF3)-D-Leu-D-Lys-4-aminopiperidine-4-carboxamide-D-Lys-OH] (H-[dF][dY](Trifluoroethyl)[dL][dK]-X10; N-terminus assumed) was tested, and the EC50 was 0.0494 nM and the “Relative Activity %” value was 1229.1%.
`CC(C)C[C@@H](NC(=O)[C@@H](Cc1ccc(OC(C)C)cc1)NC(=O)[C@H](N)Cc1ccccc1)C(=O)N[C@H](CCCCN)C(=O)N1CCC(N)(C(=O)O)CC1` [Compound 98, D-Phe-D-Tyr(Ipr)-D-Leu-D-Lys-4-aminopiperidine-4-carboxamide-OH] (H-[dF][dY](iPr)[dL][dK]-{Piperidin1yl(4-NH2,4-COOH)}; N-terminus assumed) was tested, and the EC50 was 0.145 nM and the “Relative Activity %” value was 418.2%.
For `CCOc1ccc(C[C@@H](NC(=O)[C@H](N)Cc2ccccc2)C(=O)N[C@H](CC(C)C)C(=O)N[C@H](CCCCN)C(=O)N2CCC(N)(C(=O)NCC(=O)NCC(=O)NCC(=O)NCC(=O)N[C@@H](CCCCN)C(N)=O)CC2)cc1` [Compound 59, D-Phe-D-Tyr(Et)-D-Leu-D-Lys-4-aminopiperidine-4-carboxamide-Gly-Gly-Gly-Gly-Lys-NH2] (H-[Api]([dK-dL-X12])GGGGK-NH2; N-terminus assumed), the EC50 was 0.0694 nM and the “Relative Activity %” value was 874.9%.

From patent US20260274891A1, “¿ OPIOID RECEPTOR AGONIST AND USE THEREOF” (CHENGDU AODA BIOTECHNOLOGY CO., LTD., priority 2023, published 2026)
